Results on three compounds are retold here after US20090203792A1, “METHODS OF TREATING NON-PAINFUL BLADDER DISORDERS USING ALPHA2DELTA SUBUNIT CALCIUM CHANNEL MODULATORS” (priority 2002, published 2009).

SMILES strings stand for the structures. “Also recorded” adds a separate entry of the source.

Data set [1] deals with α2δ subunit of calcium channels. Particulars: Bryans et al. (1999) Med. Res. Rev. 19: 149-177; cited from earlier work.
Data set [2] relates to rat bladder irritated by intravesical dilute acetic acid. As to the kind of experiment: Dilute acetic acid model of bladder overactivity, filling cystometry. It counts as in vivo. Particulars: for bladder capacity normalized to pre-irritation saline control values (reversal of acetic acid-induced reduction) / bladder capacity during continuous intravesical dilute acetic acid infusion: rats; for bladder capacity normalized to pre-irritation saline control values (reversal of acetic acid-induced reduction): intravenous cumulative doses: gabapentin 30-300 mg/kg n=11, pregabalin 10-100 mg/kg n=7; for bladder capacity during continuous intravesical dilute acetic acid infusion: intravenous increasing doses (gabapentin 30-300 mg/kg, p=0.0031 by Friedman test; pregabalin 10-100 mg/kg). An excerpt:
Animal Preparation Female rats (250-275 g BW) were anesthetized with urethane (1.2 g/kg) and a saline-filled catheter (PE-50) was inserted into the jugular vein for intravenous drug administration. Via a midline lower abdominal incision, a flared-tipped PE 50 catheter was inserted into the bladder dome for bladder filling and pressure recording and secured by ligation. The abdominal cavity was moistened with saline and closed by covering with a thin plastic sheet in order to maintain access to the bladder for emptying purposes. Fine silver or stainless steel wire electrodes were inserted into the external urethral sphincter (EUS) percutaneously for electromyography (EMG).
Experimental Design: Saline was continuously infused at a rate of 0.055 ml/min via the bladder filling catheter for 60 minutes to obtain a baseline of lower urinary tract activity (continuous cystometry; CMG). Following the control period, a 0.25% acetic acid solution in saline was infused into the bladder at the same flow rate to induce bladder irritation. Following 30 minutes of AA infusion, 3 vehicle injections were made at 20 minute intervals to determine vehicle effects, if any. Increasing doses of a selected active agent, gabapentin (30, 100 and 300 mg/kg; n=11) or pregabalin (10, 30 and 100 mg/kg; n=7), at half log increments were administered intravenously at 30 minute intervals in order to construct a cumulative dose-response relationship. At the end of the control saline cystometry period, at the third vehicle, and 20 minutes following each subsequent treatment, the infusion pump was stopped, the bladder was emptied via the infusion catheter and a single filling cystometrogram was performed at the same flow rate in order to determine changes in bladder capacity caused by the irritation protocol and subsequent […] drug administration. Body temperature was maintained at 37 C with a heating pad.
Bladder capacity was estimated by single filling cystometry. Data were analyzed by non-parametric ANOVA for repeated measures (Friedman Test) for cumulative dose-response studies and Dunn's Multiple Comparison post-test. In some cases, comparisons were made from the last vehicle measurement (AA/Veh 3). P<0.050 was considered significant.

Data set [3] concerns calcium currents of bladder afferent (DRG) neurons. The experiment in a line: Bladder sensory neuron calcium current model (whole cell patch-clamp). It counts as cell-based, rat. An excerpt:
Labeling of bladder afferent neurons: Adult female Sprague-Dawley rats (150-300 g) were deeply anesthetized with isoflurane. A ventral midline incision was made through the abdominal skin and musculature, exposing the urinary bladder. Five injections of the fluorescent dye Fast Blue (4%) were made into the bladder smooth muscle wall to label primary afferent fibers innervating the bladder. The area was rinsed with sterile saline to eliminate nonspecific spread of dye, and the incision was closed. Rats recovered for 12-14 days to allow for transport of Fast Blue from distal terminals to the cell somata of dorsal root ganglion (DRG) neurons. Labeled neurons were identified in vitro using fluorescence optics. […]
Neurons were incubated in culture medium containing the FITC-labeled lectin BSI-B4 (IB4, […]) at 37° C. for 5 min before recording. The coverslip was washed with extracellular recording solution for 1 min before being placed in a recording chamber mounted on the stage of an inverted microscope equipped with fluorescence optics. […]
Calcium currents were recorded from DRG neurons using standard electrophysiologic protocols. […] Currents were recorded using a patch-clamp amplifier and digitized at 3-10 kHz for acquisition. […] Baseline responses were recorded until a steady-state peak amplitude was obtained, and to ensure that the kinetics of the response were stable. […]
(In general: Patch clamp records ionic current or voltage across a cell membrane.)

Data set [4] deals with rat bladder irritated by intravesical protamine sulfate/KCl. The experiment in a line: Urothelial permeation/physiological potassium model (protamine sulfate/KCl bladder irritation), filling cystometry. It counts as in vivo. An excerpt: Female rats (250-275 g BW) are anesthetized with urethane (1.2 g/kg) and a saline-filled jugular catheter (PE-50) is inserted for intravenous drug administration. Via a midline abdominal incision, a PE 50 catheter is inserted into the bladder dome for bladder filling and pressure recording. The abdominal cavity is moistened with saline and closed by covering with a thin plastic sheet in order to maintain access to the bladder for filling cystometry emptying purposes. Fine silver or stainless steel wire electrodes are inserted into the external urethral sphincter (EUS) percutaneously for electromyography (EMG).
Saline and all subsequent infusates are continuously infused at a rate of 0.055 ml/min via the bladder filling catheter for 30-60 minutes to obtain a baseline of lower urinary tract activity (continuous cystometry; CMG). Bladder pressure traces act as direct measures of bladder and urethral outlet activity, and EUS-EMG phasic firing and voiding act as indirect measures of lower urinary tract activity during continuous transvesical cystometry. […] Once a stable level of lower urinary tract hyperactivity is established (20-30 minutes), vehicle followed by increasing doses of a selected active agent are administered intravenously in order to construct a cumulative dose-response relationship and their effects on LUT function are monitored for 20 minutes. […]

For `CC(C)C[C@H](CN)CC(=O)O` [Pregabalin, (S)-(3-aminomethyl)-5-methylhexanoic acid], the “binding affinity for the α2δ subunit of calcium channels compared with gabapentin” value in data set [1] is recorded as “even higher binding affinity”. In addition, in data set [2], the “bladder capacity normalized to pre-irritation saline control values (reversal of acetic acid-induced reduction)” value was found to be 42% and the “bladder capacity during continuous intravesical dilute acetic acid infusion” value is recorded as “demonstrate efficacy”.
Regarding `[Cl][Cd][Cl]` [CdCl2], the “block of currents recorded from bladder afferent neurons” value in data set [3] (0.1 mM, data not shown) is given as “completely blocked”.
For the compound `NCC1(CC(=O)O)CCCCC1` [gabapentin, 1-(aminomethyl)cyclohexaneacetic acid], the “peak calcium current during drug application, relative to control” value in data set [3] (30 μM bath application, six bladder afferent neurons, step from −80 mV to 0 mV, mean±SEM) is recorded as 85+1%. In addition, the “bladder capacity during continuous bladder irritation (protamine sulfate/KCl)” value in data set [4] (rats n=6, 30, 100 and 300 mg/kg intravenously, sequential at 30 minute intervals, p=0.0108 by Friedman test) is reported as “reversed the irritation effect (decreased bladder capacity) in a dose-dependent fashion; also recorded: dose-dependent increase in bladder capacity”. Moreover, the “drug-induced changes in blood pressure” value in data set [4] (rats, intravenous, any dose examined) is “No drug-induced changes in blood pressure”. Further, in data set [2] (rats n=5, 300 mg/kg intravenous, p<0.05 by Dunn's multiple comparison test), the “bladder capacity response compared with last vehicle measurement (AA/Veh 3)” value is reported as “significantly higher than AA/Veh 3”. In data set [2], the “bladder capacity normalized to pre-irritation saline control values (reversal of acetic acid-induced reduction)” value is listed as roughly 50% and the “bladder capacity during continuous intravesical dilute acetic acid infusion” value is “partially reversing the reduction in bladder capacity caused by acetic acid in a dose-dependent fashion; also recorded: dose-dependent increase in bladder capacity; also recorded: demonstrate efficacy”.
